Source: patent publication US8377975B2, “Oxadiazole derivatives for the treatment of diabetes” (Merck Patent Gesellschaft Mit Beschrankter Haftung, priority 2008, dated 2013)

Columns and labels:
Format in all cases: biochemical
[1] = target: T1, SGK3 (Homo sapiens, UniProt Q96BR1); assay: SGK3 enzyme inhibition; details: Target SGK3
T1 sequence (Q96BR1 1-496): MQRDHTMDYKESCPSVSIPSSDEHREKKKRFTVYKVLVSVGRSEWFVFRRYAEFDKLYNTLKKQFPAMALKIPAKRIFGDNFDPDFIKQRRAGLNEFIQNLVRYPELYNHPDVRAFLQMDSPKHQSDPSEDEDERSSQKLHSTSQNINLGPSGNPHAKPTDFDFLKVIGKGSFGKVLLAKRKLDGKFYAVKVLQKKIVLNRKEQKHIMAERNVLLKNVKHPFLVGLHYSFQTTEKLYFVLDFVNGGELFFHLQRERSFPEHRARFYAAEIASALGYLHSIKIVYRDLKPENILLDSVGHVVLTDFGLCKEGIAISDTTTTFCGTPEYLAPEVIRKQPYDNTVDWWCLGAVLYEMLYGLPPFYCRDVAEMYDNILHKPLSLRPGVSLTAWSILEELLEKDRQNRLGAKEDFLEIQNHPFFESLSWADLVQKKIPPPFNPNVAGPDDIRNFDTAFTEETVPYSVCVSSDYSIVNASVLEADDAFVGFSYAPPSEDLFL

[2] = target: T2, SGK2 (Homo sapiens, UniProt Q9HBY8); assay: SGK2 enzyme inhibition; details: Target SGK2
T2 sequence (Q9HBY8 1-367): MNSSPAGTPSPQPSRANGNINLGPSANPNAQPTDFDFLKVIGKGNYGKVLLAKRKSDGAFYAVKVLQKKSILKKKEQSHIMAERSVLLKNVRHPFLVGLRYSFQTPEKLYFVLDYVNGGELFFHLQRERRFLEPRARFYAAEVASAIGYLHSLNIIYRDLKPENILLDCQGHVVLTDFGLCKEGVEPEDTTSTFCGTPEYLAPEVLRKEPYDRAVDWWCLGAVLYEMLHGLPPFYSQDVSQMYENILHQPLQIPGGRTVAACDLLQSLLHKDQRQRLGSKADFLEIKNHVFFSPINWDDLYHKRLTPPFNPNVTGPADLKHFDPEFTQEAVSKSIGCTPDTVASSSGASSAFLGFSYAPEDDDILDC

[3] = target: GSK3-beta (Homo sapiens, UniProt P49841); assay: GSK3-beta enzyme inhibition; details: Target GSK3-beta
[4] = target: T3, SGK1 (Homo sapiens, UniProt O00141); assay: SGK1 enzyme inhibition (filter binding method); details: Target SGK1
T3 sequence (O00141 1-431): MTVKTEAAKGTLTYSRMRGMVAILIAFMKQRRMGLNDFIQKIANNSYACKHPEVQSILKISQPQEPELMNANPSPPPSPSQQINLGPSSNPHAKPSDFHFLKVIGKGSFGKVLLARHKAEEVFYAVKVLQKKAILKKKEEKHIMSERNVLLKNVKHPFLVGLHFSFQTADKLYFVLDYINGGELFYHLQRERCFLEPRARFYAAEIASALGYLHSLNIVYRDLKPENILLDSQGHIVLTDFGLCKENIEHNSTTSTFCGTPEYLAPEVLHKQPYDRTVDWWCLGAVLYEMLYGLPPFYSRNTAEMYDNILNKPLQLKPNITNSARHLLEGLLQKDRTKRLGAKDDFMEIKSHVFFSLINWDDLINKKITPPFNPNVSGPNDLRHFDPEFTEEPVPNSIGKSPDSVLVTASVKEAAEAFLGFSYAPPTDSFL
Description: Other assays are known from the literature and could readily be performed by the person skilled in the art (see, for example, Dhanabal et al., Cancer Res. 59:189-197; Xin at al., J. Biol. Chem. 274:9116-9121; Sheu et al., Anticancer Res. 18:4435-4441; Ausprunk et al., Dev. Biol. 38:237-248; Gimbrone et al., J. Natl. Cancer Inst. 52:413-427; Nicosia at al., In Vitro 18:538- 549). The inhibition of SGK1 protein kinase can be determined in the filter binding method.

Chain of GSK3-beta (P49841 whole entry): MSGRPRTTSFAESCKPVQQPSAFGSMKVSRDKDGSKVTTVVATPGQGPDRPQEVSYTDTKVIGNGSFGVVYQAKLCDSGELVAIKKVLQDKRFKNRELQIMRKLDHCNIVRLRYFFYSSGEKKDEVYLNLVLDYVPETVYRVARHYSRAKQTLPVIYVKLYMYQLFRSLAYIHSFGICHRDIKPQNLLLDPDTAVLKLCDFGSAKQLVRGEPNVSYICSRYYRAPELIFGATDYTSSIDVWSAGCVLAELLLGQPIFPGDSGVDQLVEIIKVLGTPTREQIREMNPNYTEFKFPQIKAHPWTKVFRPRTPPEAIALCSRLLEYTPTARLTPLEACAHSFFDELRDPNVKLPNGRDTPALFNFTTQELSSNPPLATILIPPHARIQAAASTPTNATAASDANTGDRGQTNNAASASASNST

For `CCc1c(-c2nnc(NCc3cccc(F)c3)o2)ccc(O)c1C` [Compound A1, 3-ethyl-4-[5-(3-fluorobenzylamino)-1,3,4-oxadiazol-2-yl]-2-methylphenol], the IC50 [1] was 0.001 to 0.1 µM, the IC50 [2] was 0.001 to 0.1 µM and the IC50 [3] was 0.001 to 0.1 µM. The IC50 [4] was 0.001 to 0.1 µM.
`CCc1c(-c2nnc(NCc3cccc(OC)c3)o2)ccc(O)c1C` [Compound A2] showed an IC50 [3] of 0.1 to 10 µM and an IC50 [4] of 0.001 to 0.1 µM.
In the case of `CCc1c(-c2nnc(N[C@H](C)c3cccc(OC)c3)o2)ccc(O)c1C` [Compound A3], the IC50 [3] is reported as 0.001 to 0.1 µM and the IC50 [4] is reported as 0.001 to 0.1 µM.
`CCc1c(-c2nnc(N)o2)ccc(O)c1C` [Compound A4, 4-(5-amino-1,3,4-oxadiazol-2-yl)-3-ethyl-2-methylphenol] gave an IC50 [4] of 0.1 to 10 µM.
Work on `Oc1ccc(-c2nnc(NCc3cccc(F)c3)o2)nc1` [Compound A5, 6-[5-(3-fluorobenzylamino)-1,3,4-oxadiazol-2-yl]pyridin-3-ol] yielded an IC50 [4] of over 10 µM.
For `Oc1ccc(-c2nnc(NCc3cccc(F)c3)o2)c(F)c1F` [Compound A6, 2,3-difluoro-4-[5-(3-fluorobenzylamino)-1,3,4-oxadiazol-2-yl]phenol], the IC50 [4] was over 10 µM.
